Values joined by “and” are separate entries in the source; they are usually repeats but may differ in a detail not shown here. Identical values can stand only once.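 Protocol summary: plate cells (96-well), add compound at 5 concentrations, incubate 48 h, interpolate endpoints linearly. At the GI50, growth is halved. TGI denotes the concentration required for complete inhibition of growth.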
Key:
Test in all cases: NCI-60 cell line screen, 48 h
[1] = system: SF-539 CNS
[2] = system: NCI-H522 lung
[3] = system: CCRF-CEM leukemia
[4] = system: OVCAR-5 ovarian
[5] = system: ACHN renal
[6] = system: OVCAR-3 ovarian
[7] = system: HOP-62 NSCLC
[8] = system: RXF 393 renal
[9] = system: MOLT-4 leukemia
[10] = system: SK-MEL-2 melanoma

CN(C)Cc1cc(C(F)(F)F)ccc1C(O)(c1ccccc1)c1ccccc1
TGI [1]: 32.7 µM
TGI [2]: 35 µM
TGI [3]: 28.9 µM
TGI [4]: 36.9 µM
TGI [5]: 29.9 µM
TGI [6]: > 100 µM
TGI [7]: 33.7 µM
TGI [8]: 25.4 µM
TGI [9]: 38.8 µM
TGI [10]: 41 µM

O=C1COc2cc(NC(=S)Nc3ccccc3)ccc2N1
TGI [1]: > 100 µM
TGI [2]: > 100 µM
TGI [3]: > 100 µM
TGI [4]: > 100 µM
TGI [5]: > 100 µM
TGI [6]: > 100 µM
TGI [7]: > 100 µM
TGI [8]: > 100 µM
TGI [9]: > 100 µM
TGI [10]: > 100 µM

C=C(C)[C@@H]1CC[C@]2(COCCCN)CC[C@]3(C)[C@H](CC[C@@H]4[C@@](C)(CCCNCCCN)[C@H](C(=C)C)CC[C@]43C)[C@@H]12
GI50 [1]: 1.76 µM
TGI [1]: 3.21 µM
GI50 [2]: 1.88 µM
TGI [2]: 3.78 µM
GI50 [3]: 2.39 µM
TGI [3]: 7.34 µM
GI50 [4]: 1.71 µM
TGI [4]: 3.12 µM
GI50 [5]: 1.75 µM
TGI [5]: 3.13 µM
GI50 [6]: 1.81 µM
TGI [6]: 3.36 µM
GI50 [7]: 1.66 µM
TGI [7]: 3.25 µM
GI50 [8]: 1.59 µM
TGI [8]: 2.98 µM
GI50 [9]: 1.96 µM
TGI [9]: 4.47 µM
GI50 [10]: 1.89 µM
TGI [10]: 3.71 µM

CCCCCCCCn1ccc2cc(NC(=O)Cn3cc(CN4CCCCCC4)nn3)ccc21
GI50 [1]: 1.76 µM
TGI [1]: 3.21 µM
GI50 [2]: 1.85 µM
TGI [2]: 3.59 µM
GI50 [3]: 2.25 µM
TGI [3]: 7.41 µM
GI50 [4]: 1.82 µM
TGI [4]: 3.86 µM
GI50 [5]: 1.73 µM
TGI [5]: 3.11 µM
GI50 [6]: 1.73 µM
TGI [6]: 3.24 µM
GI50 [7]: 1.64 µM
TGI [7]: 3.14 µM
GI50 [8]: 1.66 µM
TGI [8]: 3.24 µM
GI50 [9]: 2.05 µM
TGI [9]: 5.08 µM
GI50 [10]: 1.93 µM
TGI [10]: 3.6 µM

O=C1C(=O)c2ccccc2C(O)=C1C(C1=C(O)c2ccccc2C(=O)C1=O)c1ccc(Cl)cc1
TGI [1]: 32.9 µM
TGI [2]: 27.3 µM
TGI [3]: > 46 µM
TGI [4]: 17.3 µM
TGI [5]: 17 µM
TGI [6]: 11.4 µM
TGI [7]: 13.1 µM
TGI [8]: 18.4 µM
TGI [9]: 19.3 µM
TGI [10]: 24.1 µM

COc1ccc2nc3cc(Cl)ccc3c(Sc3ccc([N+](=O)[O-])cc3C)c2c1
TGI [1]: > 100 µM
TGI [2]: > 100 µM
TGI [3]: > 100 µM
TGI [4]: > 100 µM
TGI [5]: > 100 µM
TGI [6]: > 100 µM
TGI [7]: > 100 µM
TGI [8]: > 100 µM
TGI [9]: > 100 µM
TGI [10]: > 100 µM

O=C(Nc1ccc(C(F)(F)F)cc1[N+](=O)[O-])C(=O)C1NC(=S)NC1=O (stereo not given)
TGI [1]: > 100 µM
TGI [2]: > 100 µM
TGI [3]: > 100 µM
TGI [4]: > 100 µM
TGI [5]: > 100 µM
TGI [6]: > 100 µM
TGI [7]: > 100 µM
TGI [8]: > 100 µM
TGI [9]: > 100 µM
TGI [10]: > 100 µM

C[C@]12CC=CC(=O)[C@@]1(C)CCC(=O)C2
TGI [1]: > 100 µM
TGI [2]: > 100 µM
TGI [3]: > 100 µM
TGI [4]: > 100 µM
TGI [5]: > 100 µM
TGI [6]: > 100 µM
TGI [7]: > 100 µM
TGI [8]: > 100 µM
TGI [9]: > 100 µM
TGI [10]: > 100 µM

O=S(=O)(C1=CC(S(=O)(=O)c2ccccc2)CN(Cc2ccccc2)C1c1cccc2ccccc12)c1ccccc1 (stereo not given)
TGI [1]: > 69 µM
TGI [2]: > 69 µM
TGI [3]: > 69 µM
TGI [4]: > 69 µM
TGI [5]: > 69 µM
TGI [6]: > 69 µM
TGI [7]: > 69 µM
TGI [8]: > 69 µM
TGI [9]: > 69 µM
TGI [10]: > 69 µM

C=CC(=O)N1CCC(Oc2cc3c(Nc4ccc(Cl)c(Cl)c4F)ncnc3cc2OC)CC1
GI50 [1]: 1.57 µM and 1.78 µM
TGI [1]: 10 µM and 8.4 µM
GI50 [2]: < 0.01 µM and 0.00141 µM
TGI [2]: 4.19 µM and 0.782 µM
GI50 [3]: 2.33 µM and 3.37 µM
TGI [3]: 55.9 µM and > 10 µM
GI50 [4]: 4.93 µM and 3.03 µM
TGI [4]: 39 µM and > 10 µM
GI50 [5]: < 0.001 µM
TGI [5]: 14.9 µM and > 10 µM
GI50 [6]: 2.63 µM and 1 µM
TGI [6]: 16.5 µM and > 8.17 µM
GI50 [7]: 3.88 µM and 3.1 µM
TGI [7]: 25.1 µM and > 10 µM
GI50 [8]: 0.596 µM and 0.81 µM
TGI [8]: 2.76 µM and 3.87 µM
GI50 [9]: 3.38 µM and 2.13 µM
TGI [9]: 17.9 µM and > 8.44 µM
GI50 [10]: 6.15 µM and 1.95 µM
TGI [10]: 27 µM and 6.41 µM

NC(CSC(c1ccccc1)(c1ccccc1)c1ccccc1)C(=O)NCC(=O)O (stereo not given)
GI50 [1]: 2.54 µM
TGI [1]: 7.46 µM
GI50 [2]: 2.39 µM
TGI [2]: 7.13 µM
GI50 [3]: 3.68 µM
TGI [3]: > 100 µM
GI50 [4]: 22.5 µM
TGI [4]: > 100 µM
GI50 [5]: 18.9 µM
TGI [5]: > 100 µM
GI50 [6]: 5.15 µM
TGI [6]: 37.2 µM
GI50 [7]: 8.16 µM
TGI [7]: > 100 µM
GI50 [8]: 2.84 µM
TGI [8]: 19.5 µM
GI50 [9]: 16 µM
TGI [9]: 86.3 µM
GI50 [10]: 2.71 µM
TGI [10]: 7.93 µM

CN(C)CCC(=O)N1C/C(=C\c2ccc(Cl)c(Cl)c2)C(=O)/C(=C/c2ccc(Cl)c(Cl)c2)C1
TGI [1]: 0.832 µM
TGI [2]: 0.455 µM
TGI [3]: 0.738 µM
TGI [4]: 1.69 µM
TGI [5]: 1.05 µM
TGI [6]: 0.93 µM
TGI [7]: 0.941 µM
TGI [8]: 0.747 µM
TGI [9]: 1.7 µM
TGI [10]: 3.34 µM

CN(c1ccc(NC(=O)Nc2c(Cl)cccc2Cl)cc1)c1ccnc(Nc2cccc(CS(C)(=O)=O)c2)n1
GI50 [1]: 0.304 µM
TGI [1]: 6.4 µM
GI50 [2]: 3.1 µM
TGI [2]: 9.23 µM
GI50 [3]: 0.109 µM
TGI [3]: > 25 µM
GI50 [4]: 6.2 µM
TGI [4]: > 19.5 µM
GI50 [5]: 3.48 µM
TGI [5]: 8.79 µM
GI50 [6]: 1.65 µM
TGI [6]: 5.2 µM
GI50 [7]: 3.71 µM
TGI [7]: 11.9 µM
GI50 [8]: 2.23 µM
TGI [8]: 8.08 µM
GI50 [9]: > 25 µM
TGI [9]: > 25 µM
GI50 [10]: 5 µM
TGI [10]: 11.9 µM

C=C1c2c(C)nn(-c3ccc(C#CCOC4OC(CO)C(O)C(O)C4O)cc3)c2N(C)C23C[C@H]1C1(C)c4c(C)nn(-c5ccc(C#CCOC6OC(CO)C(O)C(O)C6O)cc5)c4N(C)C(C)(C[C@H]12)C3 (stereo not given in full)
GI50 [1]: 1.78 µM
TGI [1]: 3.33 µM
GI50 [2]: 1.67 µM
TGI [2]: 3.26 µM
GI50 [3]: 1.04 µM
TGI [3]: 5.03 µM
GI50 [4]: 1.78 µM
TGI [4]: 3.54 µM
GI50 [5]: 2.42 µM
TGI [5]: 10.6 µM
GI50 [6]: 1.52 µM
TGI [6]: 3.8 µM
GI50 [7]: 1.49 µM
TGI [7]: 2.88 µM
GI50 [8]: 1.62 µM
TGI [8]: 3.52 µM
GI50 [9]: 1.28 µM
TGI [9]: 3.88 µM
GI50 [10]: 1.76 µM
TGI [10]: 3.39 µM

COc1ccc2c(c1)NC1=C(C(=O)OC1)C2c1cc(OC)c(OC)c(OC)c1 (stereo not given)
GI50 [1]: < 0.01 µM
TGI [1]: 18.6 µM
GI50 [2]: < 0.01 µM
TGI [2]: < 0.01 µM
GI50 [3]: < 0.01 µM
TGI [3]: > 100 µM
GI50 [4]: < 0.01 µM
TGI [4]: > 100 µM
GI50 [5]: < 0.01 µM
TGI [5]: > 100 µM
GI50 [6]: < 0.01 µM
TGI [6]: < 0.01 µM
GI50 [7]: < 0.01 µM
TGI [7]: 42.5 µM
GI50 [8]: < 0.01 µM
TGI [8]: 61.8 µM
GI50 [9]: < 0.01 µM
TGI [9]: > 100 µM
GI50 [10]: < 0.01 µM
TGI [10]: > 100 µM
